Columns and labels:
wnt activity = wnt activity in TOP:dGFP wnt reporter zebrafish embryos (in situ hybridization and qPCR for GFP); type: in vivo; conditions: for wnt activity in the developing brain, liver and gut: developing zebrafish, TOP:dGFP
From the text: An embodiment of the present invention provides for manipulation of the genetic interaction between PGE2 and wnt/β-catenin signaling, which regulates developmental specification of stem cells and regeneration. Briefly, prostaglandin (PG) E2 is required for the formation and function of hematopoietic stem cells (HSCs) in vivo, yet its mechanism of action in these cells is not completely understood.
The following RNA probes were used to detect alterations in endodermal and liver development: GFP, LFABP, sterol carrier protein, transferrin, foxA3, insulin, trypsin, and IFABP. Changes in expression compared to wild-type controls are reported as the # altered/# scored per genotype; a minimum of three independent experiments were conducted per analysis.

[1] = system: endodermal and hepatic progenitor cells; assay: endodermal progenitors (foxA3) and liver size (lfabp) in zebrafish embryos, in situ hybridization; type: in vivo
From the text: To determine whether the interaction of PGE2 and wnt/β-catenin signaling is a conserved regulator of stem and progenitor cell populations in other tissues, endodermal and hepatic progenitor cells were examined during zebrafish development. […] ( 51/56), as detected by expression of liver fatty acid binding protein (lfabp). […] This finding is supported by the detection of various components of PGE2 signaling in foxA3 positive cells.
The APC mutant zebrafish to model constitutive activation of the wnt signaling pathway, was used to characterize the effects of the wnt/PG interaction in foxA3+ endodermal progenitors at 48 hpf. APC+/− embryos have enhanced foxA3 expression and an increased liver bud ( 88/93) as well as increased liver size ( 68/75) compared to wild-type siblings. […] Both cyclinD1 and cmyc were co-regulated by wnt and prostaglandin during development which may indicate that PGE2 exerts its effects on stem cells through enhanced cell cycling and proliferation.
In situ hybridization: Paraformaldehyde (PFA)-fixed embryos were processed for in situ hybridization using standard zebrafish protocols such as those found on the internet at, for example, ZFIN: The Zebrafish Model Organism Database (hosted by the Univ. Oregon, Eugene, Oreg.). The following RNA probes were used to detect alterations in endodermal and liver development: GFP, LFABP, sterol carrier protein, transferrin, foxA3, insulin, trypsin, and IFABP. Changes in expression compared to wild-type controls are reported as the # altered/# scored per genotype; a minimum of three independent experiments were conducted per analysis.

COc1ccc2c(c1)c(CC(=O)O)c(C)n2C(=O)c1ccc(Cl)cc1 [indomethacin]
wnt activity in the developing brain, liver and gut (wnt activity): diminished wnt activity | wnt activity in the developing brain, liver and gut (wnt activity; listed as indomethicin): virtual absence of wnt signaling | wnt activity abolished in the AGM and GFP expression markedly decreased globally (# altered/# scored) (wnt activity; indomethacin 10 μM): 72/87 | decrease in liver size (# altered/# scored) ([1]; APC+/− embryos): 61/67 | decrease in foxA3 positive progenitor cells (# altered/# scored) ([1]; APC+/− embryos, 48 hpf): 33/39 | decreased foxA3 expression (# altered/# scored) ([1]; wild-type embryos): 67/71 | smaller liver, lfabp expression (# altered/# scored) ([1]; wild-type embryos, 72 h.p.f.): 51/56 | liver size / liver development compared to controls ([1]; zebrafish embryos, by 72 hours post-fertilization): marked reduction in liver size
